Assay results reported in patent US6469138B1, “Thrombospondin receptor binding peptides” (Washington University, priority 1993, dated 2002).
Entries after “also recorded” stand apart in the source; their conditions may differ. Each block holds one molecule with its values, some of them ahead of it. Where a SMILES comes first, the peptide text is derived from it. Where no end group is shown, it is not given here.

Tests used:
Solubility of peptides = type: physicochemical; settings: for solubility: insoluble at higher concentrations, read-out: solubility limit
G361 cells [1] = assay: Direct attachment of G361 cells to peptides adsorbed on microtiter wells (cell adhesion assay); type: cell-based, human; settings: peptide adsorbed to plastic wells; cells 1 hr at 37° C.; in words
Protocol: Equimolar concentrations of peptides shown in FIG. 1A were evaluated as attachment factors for G361 cells. Peptides C4 (¤), 4N (●), 4N1 (▴), 4N1-1 (♦), 4N2 (▪) and 4C ([formula]) were adsorbed to microtiter plates at the indicated concentrations. Cells were added to the wells and incubated for 1 hour at 37° C. The attached cells were quantitated as described under “Materials and Methods” hereinbelow, and the actual absorbance due to endogenous cellular phosphatase hydrolysis of p-Nitrophenyl phosphate at 410 nm is plotted.
Microtiter wells were adsorbed with peptides C7 (▪), 7N (●), 7N3 (▴), 7N3-1 (♦), 7N2 (▪), 7N2-2 (∘), 7N3-2 (▴) and 7C, 7N1 or 7N2-1 ([formula]) at various concentrations and the attachment of G361 cells was determined. The numbers of cells attached to these peptides were correlated with the cellular phosphatase activity which is expressed as absorbance at 410 nm.
(§1) Cell Adhesion Assay—Cell adhesion was performed in 96-well plates by conventional procedures as previously described (Prater et al., 1991; Kosfeld and Frazier, 1992). […] The efficiency of coupling of all peptides was greater than 90% as judged by UV absorbance. […]
After blocking, cells were allowed to attach for 1 hr at 37° C. to substrate-coated wells or beads. In some tests, inhibition was determined by adding peptide inhibitors of cell attachment to each well along with the cells. […]

G361 cells [2] = assay: Inhibition by soluble peptides of G361 cell attachment to immobilized rCBD of TS1; type: cell-based, human; settings: for inhibition of G361 cell attachment to rCBD (in words): soluble peptide inhibitor, immobilized rCBD
Protocol: FIGS. 3A and 3B show the effect of the active subpeptides of C4 and C7 on G361 cell attachment to the rCBD of TS1. To microtiter wells containing immobilized rCBD (10 μg/ml), G361 cells were added with (FIG. 3A) 4N1-1 (●), 7N3-1 (▪), 4N1-1 plus 7N3-1 (▴) and with (FIG. 3B) 4N1 (▪), 7N3 (●) and 4N1 plus 7N3 (▴). The cells were incubated for 1.5 hr in the wells and cell attachment was determined. The effects of these subpeptides on cell attachment are expressed as percent relative to the maximum cell attachment for each test where 100% is the number of cells binding to rCBD-coated well in the absence of peptide inhibitors.
(§2) After blocking, cells were allowed to attach for 1 hr at 37° C. to substrate-coated wells or beads. In some tests, inhibition was determined by adding peptide inhibitors of cell attachment to each well along with the cells. After removal of non-adhering cells, cells attached to immobilized substrates were quantitated with endogenous cellular phosphatase activity which is measured by absorption at 410 nm as previously described (Prater et al., 1991). Each assay was carried out in duplicate and each peptide was tested in 3 separate tests at 3 or more different concentrations.
To be sure that the active peptides from C4 and C7 contain the sequences that are relevant for attachment of cells to the CBD, the shorter, more soluble active peptides were tested as soluble inhibitors of the binding of G361 cells to rCBD immobilized on plastic wells. […] In contrast, 4N1-1 and 4N1, the active subpeptides for C4, are insoluble at concentrations higher than 0.2 mM and thus must be tested as soluble inhibitors at concentrations below this solubility limit. It should be noted that inclusion of peptides in the cell attachment assay at these concentrations had no adverse effects on the cells. The results of this complementary bioassay confirmed those of the direct cell adhesion assays (FIGS. 1 and 2). […] The inhibition was dose-dependent at peptide concentrations <0.1 mM for 4N1 and 7N3 and <0.2 mM for 4N1-1 and 7N3-1. […] Each peptide is present at ½ the indicated concentration. In the case of 4N1 plus 7N3, the inhibition was nearly complete (87%). […] To evaluate the contribution of adjacent sequences to activity, peptide 7N2-2 which contained the N-terminal sequence of 7N3-1, and 7N3-1 were examined in inhibition studies.

G361 human melanomas = assay: Attachment of G361 cells to immobilized TS1 or LM; type: cell-based; settings: protein-coated wells
Protocol: (§3) FIGS. 6A, 6B, 6C and 6D show the attachment of four cell types to immobilized TS-1 and LM. Wells were coated with the indicated concentrations of TS1 (▪) or LM (●). Assays were performed as described under “Methods” hereinafter with (FIG. 6A)—G361 human melanomas; (FIG. 6B)—K562 erythroleukemia cells; (FIG. 6C)—HT1080 fibrosarcomas; and (FIG. 6D)—C32 amelanotic melanomas added to the wells.
as §1, with “1992). Synthetic peptides were solubilized with 6 N guanidine HCl (GnHCl) because some hydrophobic peptides were insoluble at concentrations approaching 1 mM in TBS.” for “1992).”
as §2, with “Each assay was carried out in duplicate and each peptide was tested in 3 separate tests at 3 or more different concentrations.” left out

[3] = tested on: K562 human erythroleukemia cells; assay: Attachment of K562 cells to immobilized TS1, LM or rCBD; type: cell-based; settings: protein-coated wells
Protocol: as §3
as §1, with “1992). Synthetic peptides were solubilized with 6 N guanidine HCl (GnHCl) because some hydrophobic peptides were insoluble at concentrations approaching 1 mM in TBS.” for “1992).”
as §2, with “Each assay was carried out in duplicate and each peptide was tested in 3 separate tests at 3 or more different concentrations.” left out

[4] = tested on: HT1080 human fibrosarcomas; assay: Attachment of HT1080 cells to immobilized TS1 or LM; type: cell-based; settings: protein-coated wells
Protocol: as §3
as §1, with “1992). Synthetic peptides were solubilized with 6 N guanidine HCl (GnHCl) because some hydrophobic peptides were insoluble at concentrations approaching 1 mM in TBS.” for “1992).”
as §2, with “Each assay was carried out in duplicate and each peptide was tested in 3 separate tests at 3 or more different concentrations.” left out

C32 human melanoma = assay: Attachment of C32 cells to immobilized TS1 or LM; type: cell-based; settings: protein-coated wells
Protocol: as §3
as §1, with “1992). Synthetic peptides were solubilized with 6 N guanidine HCl (GnHCl) because some hydrophobic peptides were insoluble at concentrations approaching 1 mM in TBS.” for “1992).”
as §2, with “Each assay was carried out in duplicate and each peptide was tested in 3 separate tests at 3 or more different concentrations.” left out

[5] = biological target: thrombospondin 1 (TS1) receptor
[6] = biological target: thrombospondin 1 (TS1) receptor; remark: listed apart in the source
[7] = biological target: thrombospondin 1 (TS1) receptor; remark: listed apart in the source

solubility (Solubility of peptides): ≤ 200 µM
Molecule: CSCC[C@H](NC(=O)[C@@H](NC(=O)[C@@H](NC(=O)[C@H](Cc1ccc(O)cc1)NC(=O)[C@H](Cc1ccccc1)NC(=O)[C@@H](N)CCCNC(=N)N)C(C)C)C(C)C)C(=O)N[C@@H](Cc1c[nH]c2ccccc12)C(=O)N[C@@H](CCCCN)C(=O)N[C@@H](CCC(N)=O)C(=O)N[C@H](C(=O)N[C@H](C(=O)N[C@@H](CCC(N)=O)C(=O)N[C@@H](CO)C(=O)O)[C@@H](C)O)C(C)C [4N1, Arg-Phe-Tyr-Val-Val-Met-Trp-Lys-Gln-Val-Thr-Gln-Ser] (H-RFYVVMWKQVTQS-OH; N-terminus and C-terminus assumed)

solubility (Solubility of peptides): ≤ 200 µM
Molecule: CSCC[C@H](NC(=O)[C@@H](NC(=O)[C@@H](NC(=O)[C@H](Cc1ccc(O)cc1)NC(=O)[C@H](Cc1ccccc1)NC(=O)[C@@H](N)CCCNC(=N)N)C(C)C)C(C)C)C(=O)N[C@@H](Cc1c[nH]c2ccccc12)C(=O)N[C@@H](CCCCN)C(=O)O [4N1-1, Arg-Phe-Tyr-Val-Val-Met-Trp-Lys]

solubility (in words) (Solubility of peptides): highly soluble
Molecule: CC[C@H](C)[C@H](N)C(=O)N[C@@H](CCCNC(=N)N)C(=O)N[C@H](C(=O)N[C@H](C(=O)N[C@@H](CCSC)C(=O)O)C(C)C)C(C)C [7N3-1, Ile-Arg-Val-Val-Met] (H-IRVVM-OH; N-terminus and C-terminus assumed)

Molecule: FIRVVMYEGKK [7N3]
cell attachment activity (direct attachment of G361 cells to immobilized peptide) (G361 cells [1]): significant activity
inhibition of G361 cell attachment to rCBD-coated surfaces (G361 cells [2]; rCBD 10 μg/ml immobilized, soluble peptide, combinations: each peptide at ½ the indicated concentration): ~50%

Molecule: Gly-Arg-Val-Val-Met (GRVVM)
inhibition of G361 cell attachment to rCBD (in words) (G361 cells [2]): inactive

Molecule: Ile-Arg-Val-Val-Gly (IRVVG)
inhibition of G361 cell attachment to rCBD (in words) (G361 cells [2]): inactive

Molecule: Ile-Glu-Val-Val-Met (IEVVM)
inhibition of G361 cell attachment to rCBD (in words) (G361 cells [2]): inactive

Molecule: RFYVVM [4N1-2]
cell attachment activity (direct attachment of G361 cells to immobilized peptide) (G361 cells [1]): little or no activity
inhibition of G361 cell attachment to rCBD (in words) (G361 cells [2]): as potent as the longer 4N1-1; also recorded: active

Molecule: TS1: thrombospondin 1, extracellular matrix protein
attachment of G361 cells to immobilized protein (G361 human melanomas): bound well
attachment of K562 cells to immobilized protein [3]: much more avidly than to LM
attachment of HT1080 cells to immobilized protein [4]: bound well
attachment of C32 cells to immobilized protein (C32 human melanoma): much more avidly than to LM

Molecule: rCBD: recombinant COOH-terminal cell binding domain of TS1 expressed in bacteria as protein A-CBD fusion protein
attachment of K562 cells to immobilized protein [3]: bound well

attachment of G361 cells to peptide adsorbed to microtiter wells (absorbance at 410 nm) (% of the maximum activity of 4N1) [5]: 60
inhibition of G361 cell attachment to rCBD-coated wells [6]: 30 % inhibition
inhibition of G361 cell attachment to LM-coated wells (LM receptor): 32 % inhibition
inhibition of K562 cell attachment to immobilised rCBD [7]: 36 % inhibition
Molecule: RFYVVMWK [4N1-1]

inhibition of G361 cell attachment to rCBD-coated wells [6]: 25 % inhibition
inhibition of G361 cell attachment to LM-coated wells (LM receptor): 50 % inhibition
inhibition of K562 cell attachment to immobilised rCBD [7]: 28 % inhibition
Molecule: IRVVM [7N3-1]

inhibition of G361 cell attachment to rCBD-coated wells [6]: 30 % inhibition
Molecule: RFYVVMWKQVTQS [4N1]

inhibition of G361 cell attachment to rCBD-coated wells [6]: 50 % inhibition
Molecule: FIRVVMYEGKK [7N3]
